Results taken from ChEMBL document CHEMBL4219159, “A genetically selected cyclic peptide inhibitor of BCL6 homodimerization” (Bioorg Med Chem, 2018).
Each block holds one molecule with its values, some of them ahead of it. The source made the active and inactive calls. No cut-off for these calls is given here. Where a SMILES comes first, the peptide text is derived from it.

Tests used:
[1] = biological target: T1, B-cell lymphoma 6 protein (Homo sapiens, UniProt P41182); assay: Binding affinity to recombinant N-terminal GST-tagged/RED-NHS labelled wild-type BCL6 BTB domain (5 to 129 residues) (unknown origin) expressed in Escherichia coli Rosetta BL21 (DE3) at 1 mM incubated for 30 mins under dark condition in by single-point microscale thermophoresis method
[2] = system: B-cell lymphoma 6 protein (Homo sapiens), P41182 [C8Q,C67R,C84N]; assay: Stabilization of recombinant BCL6 BTB domain (unknown origin) C8Q/C67R/C84N triple mutant expressed in Escherichia coli Rosetta BL21 (DE3) assessed as change in melting temperature measured every 30 secs by SYPRO orange dye based thermal shift assay
[3] = biological target: T1, B-cell lymphoma 6 protein; assay: Binding affinity to recombinant N-terminal GST-tagged/RED-NHS labelled wild-type BCL6 BTB domain (5 to 129 residues) (unknown origin) expressed in Escherichia coli Rosetta BL21 (DE3) incubated for 30 mins under dark condition by microscale thermophoresis method; details: read-out: Kd(app)
[4] = system: B-cell lymphoma 6 protein (Homo sapiens), P41182 [C8Q,C67R,C84N]; assay: Binding affinity to recombinant RED-NHS labelled BCL6 BTB domain (unknown origin) C8Q/C67R/C84N triple mutant expressed in Escherichia coli Rosetta BL21 (DE3) assessed as decrease in SMRT2 peptide binding incubated for 30 mins under dark condition by microscale thermophoresis method relative to control
[5] = biological target: T1, B-cell lymphoma 6 protein; assay: Stabilization of recombinant N-terminal GST-tagged wild-type BCL6 BTB domain (5 to 129 residues) (unknown origin) expressed in Escherichia coli Rosetta BL21 (DE3) assessed as change in melting temperature measured every 30 secs by SYPRO orange dye based thermal shift assay
[6] = system: B-cell lymphoma 6 protein (Homo sapiens), P41182 [C8Q,C67R,C84N]; assay: Inhibition of recombinant BCL6 C8Q/C67R/C84N triple mutant BTB domain dimerization (unknown origin) expressed in Escherichia coli Rosetta BL21 (DE3) at 500 uM by size exclusion chromatographic method
[7] = biological target: B-cell lymphoma 6 protein (Homo sapiens, UniProt P41182, C67R/C84N/C8Q); assay: Binding affinity to recombinant RED-NHS labelled BCL6 BTB domain (unknown origin) C8Q/C67R/C84N triple mutant expressed in Escherichia coli Rosetta BL21 (DE3) incubated for 30 mins under dark condition by microscale thermophoresis method; details: read-out: Kd(app)
[8] = system: B-cell lymphoma 6 protein (Homo sapiens), P41182 [C8Q,C67R,C84N]; assay: Binding affinity to recombinant RED-NHS labelled BCL6 BTB domain (unknown origin) C8Q/C67R/C84N triple mutant expressed in Escherichia coli Rosetta BL21 (DE3) incubated for 30 mins under dark condition in presence of DTT by microscale thermophoresis method
[9] = biological target: T1, B-cell lymphoma 6 protein; assay: Binding affinity to recombinant N-terminal GST-tagged/RED-NHS labelled wild-type BCL6 BTB domain (5 to 129 residues) (unknown origin) expressed in Escherichia coli Rosetta BL21 (DE3) incubated for 30 mins under dark condition in presence of DTT by microscale thermophoresis method

Compound: CC[C@@H](C)[C@@H]1NC(=O)[C@H](CS)NC(=O)[C@H](C(C)C)NC(=O)[C@H](CS)NC(=O)[C@H](C)NC(=O)[C@H](Cc2ccc(O)cc2)NC1=O
- Activity [1]: inactive

Compound: CC(C)[C@@H]1NC(=O)[C@H](CS)NC(=O)[C@H](Cc2ccc(O)cc2)NC(=O)[C@H](Cc2ccc(O)cc2)NC(=O)[C@H](C)NC(=O)[C@H](CS)NC1=O (cyclo(AYYCVC))
- Activity [1]: Active

Compound: CC[C@@H](C)[C@@H]1NC(=O)[C@H](CS)NC(=O)[C@H](C)NC(=O)[C@H](CS)NC(=O)[C@H](Cc2ccc(O)cc2)NC(=O)[C@H](Cc2ccc(O)cc2)NC1=O
- Activity [1]: Active

Compound: CC[C@@H](C)[C@@H]1NC(=O)[C@H](CS)NC(=O)[C@H](C(C)C)NC(=O)[C@H](C)NC(=O)[C@H](Cc2ccc(O)cc2)NC(=O)[C@H](Cc2ccc(O)cc2)NC1=O
- Activity [1]: inactive

Continued, values first:

- Activity [1]: Active
Compound: CC[C@@H](C)[C@@H]1NC(=O)[C@H](CS)NC(=O)[C@H](C(C)C)NC(=O)[C@H](CS)NC(=O)[C@H](Cc2ccc(O)cc2)NC(=O)[C@H](C)NC1=O

- Activity [2]: Dose-dependent effect
- Activity [1]: Active
- Kd [3]: 142 µM
- fold change (FC) [4]: 3
- Activity [5]: Dose-dependent effect
- inhibition [6]: Active
- Kd [7]: 50 µM
- Activity [8]: inactive
- Activity [9]: inactive
Compound: CC[C@@H](C)[C@@H]1NC(=O)[C@H](CS)NC(=O)[C@H](C(C)C)NC(=O)[C@H](CS)NC(=O)[C@H](Cc2ccc(O)cc2)NC(=O)[C@H](Cc2ccc(O)cc2)NC1=O

- Activity [1]: inactive
Compound: CC[C@@H](C)[C@@H]1NC(=O)[C@H](C)NC(=O)[C@H](C(C)C)NC(=O)[C@H](CS)NC(=O)[C@H](Cc2ccc(O)cc2)NC(=O)[C@H](Cc2ccc(O)cc2)NC1=O
